Measurements from patent US7795294B2, “Tetrahydro-2H-indazole pyrazole cannabinoid modulators” (Janssen Pharmaceutica N.V., priority 2006, dated 2010).
Like-named read-outs stand apart in the source and are kept apart here.

What was measured:
[1] = biological target: T1, human CB1 receptor (Homo sapiens, UniProt P21554); assay: Binding assay for CB1 agonists or inverse agonists, [3H]-CP-55,940 displacement on membranes of transfected SK-N-MC cells; conditions: for inhibition at 0.2 µM: read-out: Cannabinoid CB1 Receptor Binding percent inhibition
T1 construct: expressed in transfected cells; host or cells: SK-N-MC cells, stably transfected with pcDNA3 CB-1 (human); semi-purified membrane pellet
Procedure: (§1) The human CB1 and CB2 receptors were stably expressed in SK-N-MC cells transfected with pcDNA3 CB-1 (human) or pcDNA3 CB-2 (human). The cells were grown in T-180 cell culture flasks under standard cell culture conditions at 37° C. in a 5% CO2 atmosphere. The cells were harvested by trysinization and homogenized in a homogenization buffer (10 mM Tris, 0.2 mM MgCl2, 5 mM KCl, with protease inhibitors aprotinin, leupeptin, pepstatin A and bacitracin) and centrifuged (2000 g). The supernatant was then centrifuged in 2M sucrose (31,300 g) to produce a semi-purified membrane pellet. The pellet was resuspended in homogenization and stored at −80° C.
(§2) On the day of the assay, the pellet was thawed on ice and diluted in assay buffer (50 mM Tris-HCl, 5 mM MgCl2, 2.5 mM EDTA, 0.5 mg/mL fatty acid free bovine serum albumin, pH 7.5). […] The plate was covered and incubated for 90 minutes at 30° C. The contents were then aspirated onto a Packard Unifilter GF/C filter bottom plate prewet with 0.5% polyethyleneimine. The wells of the polypropylene plate were rinsed and aspirated seven times with a 0.9% saline-0.5% Tween 20 solution. The Unifilter plate was dried, a scintillation cocktail was added to each well and the counts representing binding were quantitated in a TopCount scintillation counter.
(§3) For compounds tested, an IC50 binding value was obtained from percent inhibition studies in which various test concentrations were used. The binding value was calculated by linear regression. An average value is shown for those compounds where two or more IC50 values were obtained.
(§4) An average value is shown for those compounds where two or more percent inhibition values were obtained.

[2] = biological target: T2, human CB2 receptor (Homo sapiens, UniProt P34972); assay: Binding assay for CB2 agonists or inverse agonists, [3H]-CP-55,940 displacement on membranes of transfected SK-N-MC cells; conditions: for inhibition at 0.2 µM: read-out: Cannabinoid CB2 Receptor Binding percent inhibition
T2 construct: expressed in transfected cells; host or cells: SK-N-MC cells, stably transfected with pcDNA3 CB-2 (human); semi-purified membrane pellet
Procedure: as §1, §2, §3, §4

T1 sequence (P21554 whole entry): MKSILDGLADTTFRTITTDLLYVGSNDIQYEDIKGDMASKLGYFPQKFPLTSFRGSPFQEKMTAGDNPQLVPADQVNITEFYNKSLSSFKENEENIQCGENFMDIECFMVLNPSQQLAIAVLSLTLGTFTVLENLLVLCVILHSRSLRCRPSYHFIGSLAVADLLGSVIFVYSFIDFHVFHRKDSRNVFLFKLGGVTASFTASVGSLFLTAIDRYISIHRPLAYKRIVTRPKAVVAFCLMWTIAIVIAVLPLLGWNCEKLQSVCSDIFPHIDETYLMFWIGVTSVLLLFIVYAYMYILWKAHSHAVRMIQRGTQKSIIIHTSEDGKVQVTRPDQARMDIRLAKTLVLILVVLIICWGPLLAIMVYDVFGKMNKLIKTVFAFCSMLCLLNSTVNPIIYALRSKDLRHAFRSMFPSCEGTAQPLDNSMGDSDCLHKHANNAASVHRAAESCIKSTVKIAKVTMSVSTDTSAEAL
T2 sequence (P34972 whole entry): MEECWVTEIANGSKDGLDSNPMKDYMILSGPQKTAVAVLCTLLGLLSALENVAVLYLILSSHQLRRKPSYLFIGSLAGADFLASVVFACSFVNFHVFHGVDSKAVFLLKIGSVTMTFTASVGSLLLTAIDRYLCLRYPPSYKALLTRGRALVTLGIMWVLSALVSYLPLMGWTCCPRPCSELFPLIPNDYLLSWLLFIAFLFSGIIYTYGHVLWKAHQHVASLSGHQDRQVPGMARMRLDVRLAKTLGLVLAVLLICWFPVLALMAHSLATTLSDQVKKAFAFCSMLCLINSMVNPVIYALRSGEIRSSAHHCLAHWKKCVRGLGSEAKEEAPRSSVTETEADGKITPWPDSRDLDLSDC

Structure (SMILES)	IC50 [1]	IC50 [2]	inhibition at 0.2 µM [2]	inhibition at 0.2 µM [1]	IC50 ([2]; radioligand CP-55,940 0.2 nM, average where two or more values, read-out: Cannabinoid CB2 Receptor Binding IC50)
O=C(N[C@H](CO)c1ccccc1)[C@H]1CCCc2c1nn(-c1ccc(Cl)cc1Cl)c2-c1ccc(Br)s1 [Cpd 56, (7S)-3-(5-bromo-thiophen-2-yl)-2-(2,4-dichloro-phenyl)-4,5,6,7-tetrahydro-2H-indazole-7-carboxylic acid [(1S)-2-hydroxy-1-phenyl-ethyl]-amide]	46 nM	300 nM	–	–	–
C[C@@H](NC(=O)C1CCCc2c1nn(-c1ccc(Cl)cc1Cl)c2-c1ccc(F)cc1)C1CCCCC1 (stereo partly drawn) [Cpd 36, 2-(2,4-dichloro-phenyl)-3-(4-fluoro-phenyl)-4,5,6,7-tetrahydro-2H-indazole-7-carboxylic acid [(1R)-1-cyclohexyl-ethyl]-amide]	2 nM	–	0%	–	–
C[C@@H](NC(=O)C1CCCc2c1nn(-c1ccc(Cl)cc1Cl)c2-c1ccc(Cl)s1)C1CCCCC1 (stereo partly drawn) [Cpd 47, 3-(5-chloro-thiophen-2-yl)-2-(2,4-dichloro-phenyl)-4,5,6,7-tetrahydro-2H-indazole-7-carboxylic acid [(1R)-1-cyclohexyl-ethyl]-amide]	4 nM	–	5%	–	–
COc1ccc(-c2c3c(nn2-c2ccc(Cl)cc2Cl)C(C(=O)NN2CCCCCC2)CCC3)cc1 (centres unmarked) [Cpd 22, 2-(2,4-dichloro-phenyl)-3-(4-methoxy-phenyl)-4,5,6,7-tetrahydro-2H-indazole-7-carboxylic acid azepan-1-ylamide]	–	–	22%	59%	–
C[C@@H](NC(=O)C1CCCc2c1nn(-c1ccc(Cl)cc1Cl)c2-c1ccc(Br)cc1)C1CCCCC1 (stereo partly drawn) [Cpd 44, 3-(4-bromo-phenyl)-2-(2,4-dichloro-phenyl)-4,5,6,7-tetrahydro-2H-indazole-7-carboxylic acid [(1R)-1-cyclohexyl-ethyl]-amide]	2 nM	–	21%	–	–
C[C@@H](NC(=O)[C@@H]1CCCc2c1nn(-c1ccc(Cl)cc1Cl)c2-c1ccc(Br)s1)c1ccccc1 [Cpd 53, (7R)-3-(5-bromo-thiophen-2-yl)-2-(2,4-dichloro-phenyl)-4,5,6,7-tetrahydro-2H-indazole-7-carboxylic acid [(1R)-1-phenyl-ethyl]-amide]	4 nM	–	36%	–	–
C[C@@H](NC(=O)C1CCCc2c1nn(-c1ccc(Cl)cc1Cl)c2-c1ccc(Cl)cc1)C1CCCCC1 (stereo partly drawn) [Cpd 29, 3-(4-chloro-phenyl)-2-(2,4-dichloro-phenyl)-4,5,6,7-tetrahydro-2H-indazole-7-carboxylic acid [(1R)-1-cyclohexyl-ethyl]-amide]	1 nM	–	7%	–	–
COc1ccc(-n2nc3c(c2-c2ccc(C)cc2)CCCC3C(=O)NC(C)C23CCC4CC(CC4C2)C3)cc1 (centres unmarked) [Cpd 2, 2-(4-methoxy-phenyl)-3-p-tolyl-4,5,6,7-tetrahydro-2H-indazole-7-carboxylic acid [1-(octahydro-2,5-methano-inden-5-yl)-ethyl]-amide]	2130 nM	2600 nM	–	–	–
C[C@@H](NC(=O)[C@@H]1CCCc2c1nn(-c1ccc(Cl)cc1Cl)c2-c1ccc(Cl)cc1)c1ccccc1 [Cpd 40, (7R)-3-(4-chloro-phenyl)-2-(2,4-dichloro-phenyl)-4,5,6,7-tetrahydro-2H-indazole-7-carboxylic acid [(1R)-1-phenyl-ethyl]-amide]	0.6 nM	–	11%	–	–
C[C@@H](NC(=O)[C@@H]1CCCc2c1nn(-c1ccc(Cl)cc1Cl)c2-c1ccc(Br)cc1)c1ccccc1 [Cpd 46, (7R)-3-(4-bromo-phenyl)-2-(2,4-dichloro-phenyl)-4,5,6,7-tetrahydro-2H-indazole-7-carboxylic acid [(1R)-1-phenyl-ethyl]-amide]	0.8 nM	–	28%	–	–
CC12CCC(C1)C(C)(C)[C@H]2NC(=O)C1CCCc2c1nn(Cc1ccccc1)c2-c1cccc(F)c1 (stereo partly drawn) [Cpd 19, 2-benzyl-3-(3-fluoro-phenyl)-4,5,6,7-tetrahydro-2H-indazole-7-carboxylic acid [(2S)-1,3,3-trimethyl-bicyclo[2.2.1]hept-2-yl]-amide]	400 nM	290 nM	–	–	–
COc1ccc(-n2nc3c(c2-c2ccc(C)cc2)CCCC3C(=O)N[C@@H]2C3CCC(C3)[C@@H]2CO)cc1 (stereo partly drawn) [Cpd 17, 2-(4-methoxy-phenyl)-3-p-tolyl-4,5,6,7-tetrahydro-2H-indazole-7-carboxylic acid [(2R,3S)-3-hydroxymethyl-bicyclo[2.2.1]hept-2-yl]-amide]	1800 nM	1570 nM	–	–	–
C[C@@H](NC(=O)[C@H]1CCCc2c1nn(-c1ccc(Cl)cc1Cl)c2-c1ccc(Br)s1)c1ccccc1 [Cpd 52, (7S)-3-(5-bromo-thiophen-2-yl)-2-(2,4-dichloro-phenyl)-4,5,6,7-tetrahydro-2H-indazole-7-carboxylic acid [(1R)-1-phenyl-ethyl]-amide]	–	–	20%	44%	–
COC[C@H]1CCCN1NC(=O)C1CCCc2c1nn(-c1ccc(Cl)cc1Cl)c2-c1ccc(OC)cc1 (stereo partly drawn) [Cpd 32, 2-(2,4-dichloro-phenyl)-3-(4-methoxy-phenyl)-4,5,6,7-tetrahydro-2H-indazole-7-carboxylic acid [(2R)-2-methoxymethyl-pyrrolidin-1-yl]-amide]	–	–	6%	46%	–
O=C(NN1CCCCCC1)C1CCCc2c1nn(-c1ccc(Cl)cc1Cl)c2-c1ccc(Cl)cc1 (centres unmarked) [Cpd 34, 3-(4-chloro-phenyl)-2-(2,4-dichloro-phenyl)-4,5,6,7-tetrahydro-2H-indazole-7-carboxylic acid azepan-1-ylamide]	35 nM	–	0%	–	–
C[C@@H](NC(=O)[C@H]1CCCc2c1nn(-c1ccc(Cl)cc1Cl)c2-c1ccc(Cl)cc1)c1ccccc1 [Cpd 39, (7S)-3-(4-chloro-phenyl)-2-(2,4-dichloro-phenyl)-4,5,6,7-tetrahydro-2H-indazole-7-carboxylic acid [(1R)-1-phenyl-ethyl]-amide]	22 nM	–	1%	–	–
Cc1ccc(-c2c3c(nn2Cc2ccccc2)C(C(=O)NC(C)C2CCCCC2)CCC3)cc1 (centres unmarked) [Cpd 8, 2-benzyl-3-p-tolyl-4,5,6,7-tetrahydro-2H-indazole-7-carboxylic acid (1-cyclohexyl-ethyl)-amide]	240 nM	1100 nM	–	–	–
O=C(NN1CCCCC1)C1CCCc2c1nn(-c1ccc(Cl)cc1Cl)c2-c1ccc(Cl)cc1 (centres unmarked) [Cpd 33, 3-(4-chloro-phenyl)-2-(2,4-dichloro-phenyl)-4,5,6,7-tetrahydro-2H-indazole-7-carboxylic acid piperidin-1-ylamide]	39 nM	–	0%	–	–
O=C(NN1CC2CCCC2C1)C1CCCc2c1nn(-c1ccc(Cl)cc1Cl)c2-c1ccc(Cl)cc1 (centres unmarked) [Cpd 50, 3-(4-chloro-phenyl)-2-(2,4-dichloro-phenyl)-4,5,6,7-tetrahydro-2H-indazole-7-carboxylic acid (hexahydro-cyclopenta[c]pyrrol-2-yl)-amide]	–	–	3%	39%	–
CC(NC(=O)C1CCCc2c1nn(Cc1ccccc1)c2-c1ccc(Cl)cc1)C12CC3CC(CC(C3)C1)C2 (centres unmarked) [Cpd 18, 2-benzyl-3-(4-chloro-phenyl)-4,5,6,7-tetrahydro-2H-indazole-7-carboxylic acid (1-adamantan-1-yl-ethyl)-amide]	6200 nM	1900 nM	–	–	–
CC(NC(=O)C1CCCc2c1nn(Cc1ccccc1)c2-c1cccc(F)c1)C1CCCCC1 (centres unmarked) [Cpd 9, 2-benzyl-3-(3-fluoro-phenyl)-4,5,6,7-tetrahydro-2H-indazole-7-carboxylic acid (1-cyclohexyl-ethyl)-amide]	3500 nM	2130 nM	–	–	–
O=C(NN1CCCCC1)[C@@H]1CCCc2c1nn(-c1ccc(Cl)cc1Cl)c2-c1ccc(Br)cc1 [Cpd 51, (7R)-3-(4-bromo-phenyl)-2-(2,4-dichloro-phenyl)-4,5,6,7-tetrahydro-2H-indazole-7-carboxylic acid piperidin-1-ylamide]	14 nM	–	27%	–	–
CCOC(=O)[C@H]1C2CCC(C2)[C@@H]1NC(=O)C1CCCc2c1nn(-c1ccc(OC)cc1)c2-c1ccc(C)cc1 (stereo partly drawn) [Cpd 3, (2S,3S)-3-{[2-(4-methoxy-phenyl)-3-p-tolyl-4,5,6,7-tetrahydro-2H-indazole-7-carbonyl]-amino}-bicyclo[2.2.1]heptane-2-carboxylic acid ethyl ester]	60 nM	–	–	–	370 nM
COc1ccc(-c2c3c(nn2-c2ccc(Cl)cc2Cl)C(C(=O)N[C@H](C)c2ccccn2)CCC3)cc1 (stereo partly drawn) [Cpd 27, 2-(2,4-dichloro-phenyl)-3-(4-methoxy-phenyl)-4,5,6,7-tetrahydro-2H-indazole-7-carboxylic acid [(1R)-1-pyridin-2-yl-ethyl]-amide]	31 nM	–	–	–	–
